Publication PMC9381536, “Non-apoptotic cell death induction via sapogenin based supramolecular particles” (Scientific Reports, 2022)
pIC50: −log10 of the molar value. “Also recorded” adds a separate entry of the source.

Columns and labels:
A549 = test: Cytotoxicity analysis (WST-1); assay type: cell-based; conditions: Homo sapiens, A549, 48 h
Method: (§1) HCC1937 (Human breast cancer line), HeLa (Human […]), A549 (Human lung adenocarcinoma), MRC-5 (Human lung fibroblasts), MCF7 (Human breast cancer cells), A549 (human lung carcinoma) were obtained from American Type Culture Collection and maintained as exponentially growing monolayers by culturing according to the supplier’s instructions. MCF7, HeLa, MRC-5, and A549 cell lines were cultured and routinely passaged in DMEM media containing 10% FBS, while HCC1937 cell lines were propagated in RPMI 1640 containing 10% FBS.
(§2) Following the treatment with compounds or vehicle for 48 h, the 10% WST-1 (Roche, Switzerland) in medium was replaced in each 96 well. After 4 h incubation with WST-1 reagent at 37 °C and 5% CO2, the absorbance was measured using a microplate reader at 440 nm (Varioscan, Thermo Fisher Scientific, US). Graph Pad Prism 5 (San Diego, CA, US.) was used to calculate the IC50, which represents the concentration of compounds that is required for 50% inhibition in comparison to the vehicle-treated controls. The experiments were repeated three times independently.

MCF7 = test: Cytotoxicity analysis (WST-1); assay type: cell-based; conditions: Homo sapiens, MCF7, 48 h
Method: as §1, §2

MRC-5 = test: Cytotoxicity analysis (WST-1); assay type: cell-based; conditions: Homo sapiens, MRC5, MRC-5 normal cell line, 48 h
Method: as §1, §2

HCC1937 [1] = test: Cytotoxicity analysis (WST-1); assay type: cell-based; conditions: Homo sapiens, HCC1937, 48 h
Method: as §1, §2

HeLa = test: Cytotoxicity analysis (WST-1); assay type: cell-based; conditions: Homo sapiens, 48 h
Method: as §1, §2

[2] = Nile red staining (particle formation); assay type: physicochemical; conditions: even at 30 µM
Method: AG-08 and AG were dissolved in DMSO as a 1000-fold concentrated stock added into the filtered PBS, which contain 2.5 µM Nile red. After 3 h incubation at room temperature, the fluorescence intensity was measured with a microplate reader (550 nm for excitation and 635 nm for the emission wavelength) (Varioscan, Thermo Fisher Scientific, US).

HCC1937 [3] = test: LDH (lactate dehydrogenase) releasing assay; assay type: cell-based, Human; conditions: LDH release and immunoblotting
Method: Figure 5 The cytotoxic activity of analogs depends on particle formation like AG-08. […] The level of released LDH was calculated as fold change relative to vehicle. […] After 24 h, cell viability was measured. […] Cell viability after 24 h was measured. The reported values correspond to mean values ± standard deviation (± s.d) of three experiments. ***p < 0.001, ****p < 0.0001.
LDH-Cytotoxicity Colorimetric Assay Kit II (Biovision) was used to detect LDH releasing. Briefly, HCC1937 were seeded on 96 well plate. After treatment with compounds, cells were centrifuged at 600×g for 10 min. 10 µl supernatant were transferred into clean 96 well plate and added into 100 µl LDH Reaction Mix. Following 30 min incubation at room temperature, 10 µl stop solution were added, and absorbance was measured at 450 nm (Varioscan, Thermo Fisher Scientific, US).

HCC1937 cells = test: Cytotoxicity of 220 nm filtrates; assay type: cell-based; conditions: inferred from filtration and Tween-20 tests
Method: Figure 1 AG-08 mediated cytotoxicity relies on the supramolecular structures. (A) Structure of AG-08. (B) The scanning transmission electron micrograph of 16 µM AG-08 in PBS. Figure is a representative image of stained sample with uranyl acetate (5683 × magnification; scale bar 600 nm). (C) After 3 h incubation of Nile red solution with AG-08 or AG, fluorescence intensity of Nile red was measured. (D) AG-08, Staurosporine (Sta) or vehicle samples prepared in the cell condition medium was filtrated by 220 nm filter and HCC1937 cells were exposed to the filtrates. After 24 h, the viability of cells was measured and represented as a percentage of that of the vehicle control. The error bars represent mean value ± s.d. (n = 3). *p < 0.05, **p < 0.005, ***p < 0.001. (E) Tween 20 (1:40,000) was added to the fresh medium before addition of 8 μM AG-08 or vehicle. Then cell medium was replaced with this fresh medium. Cell viability was detected after 24 h incubation. […] TEXT PRINTED IN THE PICTURE: (F) no label printed: Diameter: 153.2±4.6; polydispersity index: 0.218
To verify that the activity of AG-08 arises from its supramolecular structures, freshly prepared AG-08 solutions were filtered using 220 nm-filters to remove AG-08 supramolecular particles from medium, and the filtrates were analyzed for their cytotoxicity. […] Next, Tween-20 was utilized as a non-ionic detergent to block particle formation, and AG-08-mediated cell death was inhibited as expected (Fig. 1E). […]

[4] = tested on: HeLa, HCC1937, MCF7, A549 and MRC-5; test: cells; assay type: cell-based, Human; conditions: for pIC50: Homo sapiens, range over HeLa, HCC1937, MCF7, A549, MRC-5, read-out: IC50 across the five cell lines
Source text: We next aimed to further characterize the relation between the chemical structure of AG-08 and its capacity of supramolecular assembly formation together with its biological activities by preparing further derivatives. In this regard, 18 analogs (Fig. 4) were synthesized from 20(27)-octanor-cycloastragenol (SCG), cycloastragenol (CG), and astragenol (AG) by the methods shown in the method section. The details and characterization of which are shown in Supplementary Information. The cytotoxic activities of the semi-synthetic analogs were evaluated against four human cancer cell lines, namely HeLa, HCC1937, MCF7, and A549 as well as against MRC-5 as a normal cell line.
as §1, §2

[5] = fibrils inducing apoptosis; cited from earlier work

CC(C)(O)C1CCC(C)(C2C(O)CC3(C)C4CC(O)C5C(C)(CCC(O)C5(C)C)C4=CCC23C)O1 (centres unmarked) [AG, astragenol, reference compound]
pIC50 (A549): < 4.52 | pIC50 (MCF7): < 4.52 | pIC50 (MRC-5): < 4.52 | pIC50 (HCC1937 [1]): < 4.52 | pIC50 (HeLa): < 4.52 | Nile red fluorescence intensity (particle formation) [2]: no fluorescence intensity

Cc1ccc(S(=O)(=O)OC2CCC3(C)C4=CCC5(C)C(C6(C)CCC(C(C)(C)O)O6)C(O)CC5(C)C4CC(=O)C3C2(C)C)cc1 (centres unmarked) [AG-05]
mode of cell death (HCC1937 [3]): induced necrotic cell death | pIC50 (A549): 5.69 | pIC50 (MCF7): 5.59 | pIC50 (MRC-5): 5.81 | pIC50 (HCC1937 [1]): 5.37 | pIC50 (HeLa): 5.23 | formation of supramolecular assemblies/particles (HCC1937 cells): form supramolecular assemblies; also recorded: formed supramolecular particles | cytotoxic activity (structure-activity statement) [4]: higher activity | pIC50 [4]: 5.23 to 5.81

CC(=O)Nc1ccc(S(=O)(=O)OC2CCC3(C)C4=CCC5(C)C(C6(C)CCC(C(C)(C)O)O6)C(O)CC5(C)C4C=CC3C2(C)C)cc1 (centres unmarked) [AG-06]
mode of cell death (HCC1937 [3]): induced necrotic cell death | pIC50 (A549): 5.24 | pIC50 (MCF7): 5.03 | pIC50 (MRC-5): 4.72 | pIC50 (HCC1937 [1]): 5.00 | pIC50 (HeLa): 4.97 | formation of supramolecular assemblies/particles (HCC1937 cells): formed supramolecular particles | cytotoxic activity (structure-activity statement) [4]: decrease in activity | pIC50 [4]: 4.72 to 5.24

Cc1ccc(S(=O)(=O)OC2CCC34CC35CCC3(C)C(C6(C)CCC(C(C)(C)O)O6)C(O)CC3(C)C5C=CC4C2(C)C)cc1 (centres unmarked) [CG-03]
mode of cell death (HCC1937 [3]): induced necrotic cell death | pIC50 (A549): 5.44 | pIC50 (MCF7): 5.26 | pIC50 (MRC-5): 5.28 | pIC50 (HCC1937 [1]): 5.21 | pIC50 (HeLa): 4.89 | formation of supramolecular assemblies/particles (HCC1937 cells): form supramolecular assemblies; also recorded: formed supramolecular particles | pIC50 [4]: 4.89 to 5.44

Cc1ccc(S(=O)(=O)OC2CCC34CC35CCC3(C)C(C6(C)CCC(C(C)(C)O)O6)C(O)CC3(C)C5CC(=O)C4C2(C)C)cc1 (centres unmarked) [CG-05]
mode of cell death (HCC1937 [3]): induced necrotic cell death | pIC50 (A549): 5.73 | pIC50 (MCF7): 5.41 | pIC50 (MRC-5): 5.59 | pIC50 (HCC1937 [1]): 5.58 | pIC50 (HeLa): 5.21 | formation of supramolecular assemblies/particles (HCC1937 cells): form supramolecular assemblies; also recorded: formed supramolecular particles | cytotoxic activity (structure-activity statement) [4]: higher activity | pIC50 [4]: 5.21 to 5.73

CC(=O)Nc1ccc(S(=O)(=O)OC2CCC34CC35CCC3(C)C(C6(C)CCC(C(C)(C)O)O6)C(O)CC3(C)C5C=CC4C2(C)C)cc1 (centres unmarked) [CG-06]
mode of cell death (HCC1937 [3]): induced necrotic cell death | pIC50 (A549): < 4.30 | pIC50 (MCF7): 4.38 | pIC50 (MRC-5): < 4.30 | pIC50 (HCC1937 [1]): 4.42 | pIC50 (HeLa): < 4.30 | formation of supramolecular assemblies/particles (HCC1937 cells): form supramolecular assemblies | cytotoxic activity (structure-activity statement) [4]: complete activity loss

C=C(C)[C@@H]1CC[C@]2(C(=O)O)CC[C@]3(C)[C@H](CC[C@@H]4[C@@]5(C)CC[C@H](O)C(C)(C)[C@@H]5CC[C@]43C)[C@@H]12 [betulinic acid]
concentration at which fibrils form [5]: > 50000 µM
